Read-outs that look alike come from different tables or passages of the source.
Assays:
AaDOP2 [1] = biological target: T1, AaDOP2 (Aedes aegypti, UniProt H6D5H2); assay: CRELuc reporter dose-response in HEK293 cells stably expressing AaDOP2; type: cell-based; conditions: HEK293 cells stably expressing CRELuc reporter and AaDOP2; read-out: EC50 values AaDOP2
AaDOP1 = AaDOP1 (Aedes aegypti, UniProt H6D5H1); assay: CRELuc reporter dose-response in HEK293 cells stably expressing AaDOP1; type: cell-based; conditions: HEK293 cells stably expressing CRELuc reporter and AaDOP1
AaDOP1, sequence (H6D5H1 entry or part of it): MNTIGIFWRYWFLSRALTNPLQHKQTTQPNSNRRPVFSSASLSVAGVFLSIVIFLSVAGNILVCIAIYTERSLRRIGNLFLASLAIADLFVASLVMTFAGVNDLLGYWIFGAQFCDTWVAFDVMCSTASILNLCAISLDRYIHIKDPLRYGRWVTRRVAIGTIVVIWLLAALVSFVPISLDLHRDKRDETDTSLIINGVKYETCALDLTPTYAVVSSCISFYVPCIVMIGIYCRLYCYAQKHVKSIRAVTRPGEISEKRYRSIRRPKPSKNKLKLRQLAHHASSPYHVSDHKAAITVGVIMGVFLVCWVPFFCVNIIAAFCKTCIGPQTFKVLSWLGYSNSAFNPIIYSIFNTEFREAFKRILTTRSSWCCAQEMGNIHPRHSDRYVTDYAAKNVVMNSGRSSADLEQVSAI

AaDOP2 [2] = biological target: T1, AaDOP2; assay: AaDOP2 agonist screen against the LOPAC1280 library; type: cell-based; conditions: 10 μM compound; percent of response to 1 μM dihydrexidine
Ae. aegypti L3 larvae [3] = assay: whole plant or invertebrate; conditions: Aedes aegypti
[4] = system: adult Reticulitermes flavipes; assay: Termite immersion assay; type: in vivo; conditions: in vivo
Excerpt: A series of whole organism bioassays was developed to further evaluate the toxicity of chemistries to a range of agricultural, veterinary and public health pests and non-target insects (Tables 12 and 13). These assays are designed to rapidly explore the biological activity spectrum of chemistries as well as to facilitate initial investigations of the mode of action of insecticidal compounds. Briefly, assays were developed for the German cockroach (Blatella germanica, urban pest), termite (Reticulitermes flavipes; urban pest), lone star tick (Amblyomma americana; veterinary and public health pest), soybean aphid (Aphis glycines, agricultural pest) and honeybee (Apis mellifera; beneficial, non-target insect). The assays were designed to test the toxicity and speed of kill of multiple chemistries on contact. Each of these assays was performed as a single point dose experiment in triplicate using either topical application of compound to the ventral thorax (1 μl of a […] compound solution in 1:1 v:v DMSO:EtOH vehicle; 50-80 μg effective dose depending on compound) as is the case for our cockroach and honeybee assays, or 10 second immersion in a solution of the compound diluted in water or DMSO:[…] The assays were conducted in 24-well plate format with mortality assessment following incubation at 22° C. as described above. Commercial insecticides were incorporated in these assays to provide a positive control and permit initial comparative analyses. Lead chemistries identified in our in vivo screen have been evaluated in the cockroach and termite assays.

[5] = system: adult male Blatella germanica; assay: Cockroach contact assay (topical application); type: in vivo; conditions: 200 mM compound
Excerpt: (§1) A series of whole organism bioassays was developed to further evaluate the toxicity of chemistries to a range of agricultural, veterinary and public health pests and non-target insects (Tables 12 and 13). These assays are designed to rapidly explore the biological activity spectrum of chemistries as well as to facilitate initial investigations of the mode of action of insecticidal compounds. Briefly, assays were developed for the German cockroach (Blatella germanica, urban pest), termite (Reticulitermes flavipes; urban pest), lone star tick (Amblyomma americana; veterinary and public health pest), soybean aphid (Aphis glycines, agricultural pest) and honeybee (Apis mellifera; beneficial, non-target insect). The assays were designed to test the toxicity and speed of kill of multiple chemistries on contact. Each of these assays was performed as a single point dose experiment in triplicate using either topical application of compound to the ventral thorax ([…]; 50-80 μg effective dose depending on compound) as is the case for our cockroach and honeybee assays, or 10 second immersion in a solution of the compound diluted in water or DMSO:EtOH to a final concentration of 100 μM. The assays were conducted in 24-well plate format with mortality assessment following incubation at 22° C. as described above. Commercial insecticides were incorporated in these assays to provide a positive control and permit initial comparative analyses. Lead chemistries identified in our in vivo screen have been evaluated in the cockroach and termite assays.

AaDOP2 [6] = biological target: T1, AaDOP2; assay: LOPAC1280 antagonist screen in HEK-CRELuc-Aadop2 cells; type: cell-based; conditions: for % of the SCH23390 effect: 10 μM compound, 300 nM dopamine, quadruplicate; for % inhibition of DA activity (Aedes cell-based assay screen): LOPAC1280 screen hits
Ae. aegypti L3 larvae [7] = assay: Ae. aegypti L3 concentration response and time course assays; type: in vivo, Aedes aegypti; conditions: for LT50: 400 μM, L3 larval time course assay; for LC50: Aedes aegypti
Method: Briefly, chemistries were diluted to appropriate concentration in water and added to the wells of 24-well plates containing 5 L3 stage Ae. aegypti larvae to achieve a final concentration of 400, 200, 100, 50 and 25 μM in 1 ml sterile RO water. Chemistries were tested in quadruplicate at each concentration. […] Results reported here represent a minimum of three independent CRC experiments (i.e., n=3).

Isdop2 [8] = biological target: T2, Isdop2 (Ixodes scapularis, UniProt A0ACM8DGL0); assay: cell-based; conditions: read-out: % Inhibition (of response to dopamine), Isdop2 screen
T2 sequence (A0ACM8DGL0 entry or part of it): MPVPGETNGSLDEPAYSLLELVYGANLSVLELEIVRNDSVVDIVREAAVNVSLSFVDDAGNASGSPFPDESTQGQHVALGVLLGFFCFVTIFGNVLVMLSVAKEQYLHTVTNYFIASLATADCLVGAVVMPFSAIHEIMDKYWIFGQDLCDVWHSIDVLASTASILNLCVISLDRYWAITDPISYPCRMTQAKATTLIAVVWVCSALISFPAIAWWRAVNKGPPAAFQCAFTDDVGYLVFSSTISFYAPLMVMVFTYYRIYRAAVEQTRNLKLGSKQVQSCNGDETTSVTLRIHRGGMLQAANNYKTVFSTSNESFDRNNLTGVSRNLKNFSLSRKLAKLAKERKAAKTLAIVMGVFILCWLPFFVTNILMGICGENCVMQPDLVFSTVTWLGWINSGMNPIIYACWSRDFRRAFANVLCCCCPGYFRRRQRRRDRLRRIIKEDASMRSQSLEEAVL

AaDOP2 [9] = biological target: T1, AaDOP2; assay: HTRF cAMP accumulation concentration response assay (Cisbio Dynamic 2); type: cell-based; conditions: AaDOP2 expressing cells in the presence of dopamine; No Inhibition = <10% inhibition at 3 μM test compound; read-out: IC50 ± S.E.M. (nM), HTRF cAMP assay
[10] = system: adult male Blatella germanica; assay: Cockroach assay of Table 16 (title contact assay, text feeding assay); type: in vivo; conditions: 200 mM compound
Excerpt: as §1

Ae. aegypti L3 larvae [11] = conditions: 400 μM, three independent experiments
Isdop2 [12] = biological target: T2, Isdop2; assay: cAMP accumulation in HEK 293 cells transiently expressing Isdop2; type: cell-based; conditions: 10 μM biogenic amine, 300 nM propranolol, cAMP accumulation, mean±standard error
Isdop1 = Isdop1 (Ixodes scapularis, UniProt A0ACM8FJJ0); assay: cAMP accumulation in HEK 293 cells transiently expressing Isdop1; type: cell-based; conditions: 10 μM biogenic amine, 300 nM propranolol, cAMP accumulation, mean±standard error
[13] = 0.5 h, read-out: mortality of the mosquito population within 30 minutes, 400 μM, L3 larvae
[14] = 0.5 h, read-out: percent mortality 0.5 hr, 400 uM, L3 larvae, value for this scoring time
[15] = 1 h, read-out: percent mortality 1 hr, 400 uM, L3 larvae, per scoring time
[16] = 2 h, read-out: percent mortality 2 hr, 400 uM, L3 larvae, per scoring time
[17] = 3 h, read-out: percent mortality 3 hr, 400 uM, L3 larvae, per scoring time
[18] = 4 h, read-out: percent mortality 4 hr, 400 uM, L3 larvae, per scoring time
[19] = 24 h, read-out: percent mortality 24 hr, 400 uM, L3 larvae, per scoring time
[20] = 48 h, read-out: Toxicity to Aedes aegypti larvae (mortality) 48 hours, 400 μM, L3 larvae, three independent experiments
[21] = 48 h, read-out: percent mortality 48 hr, 400 uM, L3 larvae, per scoring time
[22] = 72 h, read-out: Cumulative % Mortality (72 hrs), 400 uM, L3 larvae
[23] = 72 h, read-out: Toxicity to Aedes aegypti larvae (mortality) 72 hours, 400 μM, L3 larvae, three independent experiments
[24] = 72 h, read-out: percent mortality 72 hr, 400 uM, L3 larvae, per scoring time

T1 sequence (H6D5H2 entry or part of it): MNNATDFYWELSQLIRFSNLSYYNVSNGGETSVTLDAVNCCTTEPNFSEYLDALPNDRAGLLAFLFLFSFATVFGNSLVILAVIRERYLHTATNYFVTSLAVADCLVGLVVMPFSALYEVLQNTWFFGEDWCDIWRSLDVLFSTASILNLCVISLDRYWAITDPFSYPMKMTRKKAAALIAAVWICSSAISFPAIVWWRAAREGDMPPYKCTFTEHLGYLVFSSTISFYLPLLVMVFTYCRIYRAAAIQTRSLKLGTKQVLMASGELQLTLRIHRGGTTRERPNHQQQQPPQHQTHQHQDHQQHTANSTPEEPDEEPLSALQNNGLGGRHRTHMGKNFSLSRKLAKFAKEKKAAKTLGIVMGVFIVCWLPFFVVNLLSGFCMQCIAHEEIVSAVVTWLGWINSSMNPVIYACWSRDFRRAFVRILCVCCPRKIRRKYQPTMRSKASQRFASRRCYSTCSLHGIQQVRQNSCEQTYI

SMILES	mortality at 400 µM (Ae. aegypti L3 larvae [3]; [14])	mortality at 400 µM (Ae. aegypti L3 larvae [3]; [15])	mortality at 400 µM (Ae. aegypti L3 larvae [3]; [16])	mortality at 400 µM (Ae. aegypti L3 larvae [3]; [17])	mortality at 400 µM (Ae. aegypti L3 larvae [3]; [18])	mortality at 400 µM (Ae. aegypti L3 larvae [3]; [19])	mortality at 400 µM (Ae. aegypti L3 larvae [3]; [20])	mortality at 400 µM (Ae. aegypti L3 larvae [3]; [21])	mortality at 400 µM (Ae. aegypti L3 larvae [3]; [22])	mortality at 400 µM (Ae. aegypti L3 larvae [3]; [23])	mortality at 400 µM (Ae. aegypti L3 larvae [3]; [24])	inhibition at 10 µM (Isdop2 [8])	IC50 (AaDOP2 [9])	Toxicity to Aedes aegypti larvae (mortality) 24 hours (Ae. aegypti L3 larvae [11])	also measured
Oc1cc2c(cc1O)[C@H]1c3ccccc3CN[C@@H]1CC2 (racemic) [Dihydrexidine]															EC50 (AaDOP2 [1]): 290 ± 54 nM; EC50 (AaDOP1): 6.9 ± 1.5 nM; % of DHX (AaDOP2 [2]): 116%
CCNC(=O)N1CCN(CCCC(c2ccc(F)cc2)c2ccc(F)cc2)CC1 [Amperozide, 4-[4,4-bis(4-fluorophenyl)butyl]-N-ethylpiperazine-1-carboxamide]	90%	0%	0%	0%	0%	0%	93%	0%	100%	93%	0%	69%	570 ± 110 nM		mortality at 400 µM (Ae. aegypti L3 larvae [3]; [13]): > 70%; mortality of adult termites [4]: 70-100%; % Mortality 24 hrs [5]: 0%; % Mortality 48 hrs [5]: 0%; % Mortality 72 hrs [5]: 0%; % Mortality 120 hrs [5]: 5%; % Mortality 240 hrs [5]: 5%; % of the SCH23390 effect (AaDOP2 [6]): 83%; % inhibition of DA activity (Aedes cell-based assay screen) (AaDOP2 [6]): 83%; LT50 (Ae. aegypti L3 larvae [7]): 42 min; % Mortality 24 hrs [10]: 0%; % Mortality 48 hrs [10]: 0%; % Mortality 72 hrs [10]: 3%; % Mortality 120 hrs [10]: 7%
CN1CC2c3ccccc3Oc3ccc(Cl)cc3C2C1 (stereo not drawn) [Asenapine]	70%	20%	10%	0%	0%	0%	100%	0%	100%	100%	0%		0.3 ± 0.06 nM	100%	mortality at 400 µM (Ae. aegypti L3 larvae [3]; [13]): > 70%; mortality at 400 µM (Ae. aegypti L3 larvae [3]; […], read-out: percent mortality […], 400 uM, L3 larvae, per scoring time): 0%; % Mortality 24 hrs [5]: 5%; % Mortality 48 hrs [5]: 5%; % Mortality 72 hrs [5]: 10%; % Mortality 120 hrs [5]: 10%; % Mortality 240 hrs [5]: 10%; LT50 (Ae. aegypti L3 larvae [7]): 30 min; LC50 (Ae. aegypti L3 larvae [7]): 40000 nM; % Mortality 24 hrs [10]: 17%; % Mortality 48 hrs [10]: 20%; % Mortality 72 hrs [10]: 27%; % Mortality 120 hrs [10]: 27%
CN1C2CCC1CC(OC(c1ccccc1)c1ccccc1)C2 (stereo not drawn) [Benztropine, (3-endo)-3-(diphenylmethoxy)-8-methyl-8-azabicyclo[3.2.1]octane]	0%	0%	20%	0%	0%	40%	100%	0%	100%	100%	0%	84%		100%	
CN(C)CCCN1c2ccccc2Sc2ccc(Cl)cc21 [Chlorpromazine]	70%	0%	10%	0%	0%	10%	100%	0%	100%	100%	0%	92%	17 nM	100%	mortality at 400 µM (Ae. aegypti L3 larvae [3]; [13]): > 70%; % Mortality 24 hrs [5]: 3%; % Mortality 48 hrs [5]: 10%; % Mortality 72 hrs [5]: 10%; % Mortality 120 hrs [5]: 14%; % Mortality 240 hrs [5]: 17%; LT50 (Ae. aegypti L3 larvae [7]): 178 min; LC50 (Ae. aegypti L3 larvae [7]): 92000 nM; % Mortality 24 hrs [10]: 7%; % Mortality 48 hrs [10]: 17%; % Mortality 72 hrs [10]: 17%; % Mortality 120 hrs [10]: 20%
CN(C)CCCN1c2ccccc2CCc2ccc(Cl)cc21 [Clomipramine]							93%			93%		84%		70%	mortality at 400 µM (Ae. aegypti L3 larvae [3]; 24 h, read-out: Toxicity to Aedes aegypti larvae (mortality) 24 hours, 400 μM, L3 larvae, three independent experiments): 70 to 100%
NCCc1c[nH]cn1 [Histamine]															Stimulatory response (fold-over-basal) Isdop2 (Isdop2 [12]): 1.55 ± 0.28 fold-over-basal; Stimulatory response (fold-over-basal) Isdop1 (Isdop1): 1.02 ± 0.10 fold-over-basal
CN1CCN(C2=Nc3ccccc3Oc3ccc(Cl)cc32)CC1 [Loxapine, 2-Chloro-11-(4-methylpiperazin-1-yl)dibenzo[b,f][1,4]oxazepine]	30%	0%	30%	0%	0%	0%	100%	0%	100%	100%	0%	93%		97%	mortality at 400 µM (Ae. aegypti L3 larvae [3]; 3 h, read-out: mortality within three hours, 400 μM, L3 larvae): > 70%; % of the SCH23390 effect (AaDOP2 [6]): 97%; % inhibition of DA activity (Aedes cell-based assay screen) (AaDOP2 [6]): 97%
CNCCCN1c2ccccc2CCc2ccc(Cl)cc21 [Norclomipramine]													670 ± 35 nM	40%	Toxicity to Aedes aegypti larvae (mortality) 48 hours (Ae. aegypti L3 larvae [11]): 63%; Toxicity to Aedes aegypti larvae (mortality) 72 hours (Ae. aegypti L3 larvae [11]): 70%
NCCc1c[nH]c2ccc(O)cc12 [Serotonin, 5-hydroxytryptamine]															Stimulatory response (fold-over-basal) Isdop2 (Isdop2 [12]): 1.52 ± 0.20 fold-over-basal; Stimulatory response (fold-over-basal) Isdop1 (Isdop1): 1.06 ± 0.08 fold-over-basal
NCCc1ccc(O)cc1 [Tyramine]															Stimulatory response (fold-over-basal) Isdop2 (Isdop2 [12]): 1.27 ± 0.22 fold-over-basal; Stimulatory response (fold-over-basal) Isdop1 (Isdop1): 1.34 ± 0.11 fold-over-basal
